Patent US20230406850A1, “CRYSTALLINE FORM OF HETEROCYCLIC COMPOUND, PREPARATION METHOD THEREFOR AND APPLICATION THEREOF” (WUHAN LL SCIENCE AND TECHNOLOGY DEVELOPMENT CO., LTD., priority 2020, published 2023)
In brackets after ≈: the same amount, converted by molar mass. Like-named read-outs stand apart in the source and are kept apart here.

What was measured:
[1] = Solid form change on dehydration, drying or ambient humidity (XRPD); type: physicochemical
Description: Combined with DSC and TGA pattern, it can be seen that the product is hydrate with about 0.34 water molecules.

[2] = system: Dunkin Hartley guinea pigs, ATP-citric acid induced cough; assay: ATP-citric acid cough model; type: in vivo, guinea pig
Procedure: Male Dunkin Hartley guinea pigs (300-400 g) were placed in a whole-body volume scanning box for 3 to 5 minutes, and then subjected to ATP atomization for 2 minutes, with an interval of 3 minutes, followed by citric acid atomization for 5 minutes, and all atomization rates were about 300 μL/min. From citrate acid atomization, cough times and cough latency of animals within 10 min were recorded. During the 10-minute observation period, manual counting of coughs was required, and the number of coughs was judged according to the guinea pig's coughing posture, such as abdominal twitching, mouth opening, head down hooking, etc., as well as the sound of coughing, the number of coughs in the first 10 minutes were recorded, and the cough incubation period of guinea pigs was also recorded.
Animals were divided into vehicle group, dextromethorphan (63 mg/kg) positive group, AF-219 (30 mg/kg) positive group and compound 172 (3, 10, 30 mg/kg) administration group of Embodiment. All compounds were administered orally, except dextromethorphan, which was administered 40 minutes before ATP-citric acid exposure, and the rest compounds were […].

[3] = Dynamic vapor sorption (DVS) hygroscopicity; type: physicochemical
Procedure: The solid was analyzed by DVS using IGA sorp dynamic vapor sorption instrument. • Temperature: 25° C. • Gas flow: 250 mL/min. • Scan cycle: 2. • Minimum test time: 30 min. • Maximum test time: 2 hours. • Waiting for balance: 98%.

[4] = Physical and chemical stability (stability boxes, XRPD and HPLC); type: physicochemical; conditions: for Purity -7 days (peak area %) / XRPD: 7 days
Procedure: About 10 mg of crystalline forms I, III and V were placed in the stability boxes at 40° C./75% RH (open) and 60° C. (covered) for seven days, and some samples were taken out for XRPD and HPLC tests at 0 and 7 days, respectively, to investigate their physical and chemical stability.

[5] = Competitive slurrying experiment of crystalline forms I and V; type: physicochemical; conditions: acetone, ethanol, room temperature and 60° C., three days
Procedure: Competitive slurrying experiment was carried out: the same amount of crystalline forms I and V were weighed and mixed evenly, then XRPD was tested, and the results were used as T0 of competitive slurrying experiment. The mixture was slurried in acetone, ethanol and water at room temperature and 60° C. Three days later, solid samples were obtained by filtration, and. XRPD was tested.

[6] = Water activity experiment (slurry in acetone/water); type: physicochemical; conditions: three days
Procedure: Water activity experiment was carried out. Crystalline forms I and V ([…]) were slurried in a mixed solvent in acetone/water with different water contents at room temperature and 60° C. for three days, and after three days, solid sample was filtered to test XRPD, and the experimental results are as shown in Table 4.

[7] = Solubility in biological media SGF, FaSSIF and FeSSIF; type: physicochemical; conditions: for solubility at 0.5 h / solubility at 2 h / Solubility: 37° C.
Procedure: Compared with other crystalline forms, crystalline forms I, III and V show good solid properties, so their solubility was tested respectively.
10 mg of the sample was weighed, and then 2.0 mL of biological media buffer (i.e. the target concentration is 5 mg/mL) was added to form a suspension. The mixture was put in a constant temperature water bath shaker (37° C., 100 rpm), and sampled 500 μL at 0.5, 2 and 24 hours respectively. After filtration, the pH value and HPLC concentration of filtrate were tested respectively, and the solid sample obtained by filtration was tested by XRPD.

[8] = Pharmacokinetics, crystalline form I versus crystalline form V; type: in vivo, Beagle dog; conditions: 10 mg/kg po, fasting, male dogs, 0.5% CMC-Na suspension, plasma
Procedure: Beagle dog (general grade, Beijing Masi Biotechnology Co., Ltd.) was given compound A by single oral gavage to study the pharmacokinetics of the compound in plasma. The test drug (100 mg/kg dosage, 5 mL/kg administration volume) was given by gavage, and samples were collected at 10 minutes, 30 minutes, 1 hour, 2 hours, 4 hours, 6 hours, 8 hours, 10 hours, 24 hours and 48 hours after administration: peripheral venipuncture was performed, and about 1.0 mL whole blood was collected from each animal at every time point, and blood samples were collected. Within 60 minutes after blood collection, 0.2 mL of whole blood was separated into a cryopreservation tube, and deionized water was added at a ratio of 1:1, which was mixed upside down and then frozen. The remaining samples were centrifuged at 2,000 g at 2 to 8° C. for 10 min to obtain plasma samples, and the hemolysis of each sample was recorded, and the influence on detection was evaluated, and then the color of plasma was observed and recorded on the blood collection table (“−” means no hemolysis, “+” means pink supernatant and “++” means red supernatant).
The concentration of compound A in plasma was determined by LC-MS/MS method (Non-GLP). The pharmacokinetic parameters were calculated by WinNonlin (Phoenix™, version 8.1) or other similar software. If applicable plasma drug concentration-time data are available, the following pharmacokinetic parameters are calculated: CL (clearance), Vss (steady-state apparent volume of distribution), T1/2 (elimination half-life), Cmax (peak concentration), Tmax (peak time), AUC (area under the concentration-time curve), MRT (mean residence time). Pharmacokinetic data were described by descriptive statistics, such as mean, standard deviation and sample size.
Comparison of crystalline form and crystalline form V is the same for 3 dogs (male), 10 mg/kg po, fasting, 0.5% CMC-Na stirring for 3 hours, and then administration (suspension), and the data obtained are as shown in Table 7.

[9] = Solid-state crystal transformation between crystalline forms I and V; type: physicochemical; conditions: mixture of forms I and V, oven at 60° C. and room temperature dryer, one week
[10] = 63 mg/kg oral, 40 minutes before ATP-citric acid exposure

COC(=O)N1CCO[C@@H](Cc2c(-c3c(F)cc(S(N)(=O)=O)cc3F)nc3cc(Cl)ccn23)C1 [Crystalline form IV, methyl (S)-2-((7-chloro-2-(2,6-difluoro-4-sulfamoylphenyl)imidazo[1,2-a]pyridin-3-yl)methyl)morpholine-4-carboxylate]
crystalline form after dehydration ([1]; heating to dehydration, then ambient humidity): becomes crystalline form I again

COC(=O)N1CCO[C@@H](Cc2c(-c3c(F)cc(S(N)(=O)=O)cc3F)nc3cc(Cl)ccn23)C1 [Crystalline form VI, methyl (S)-2-((7-chloro-2-(2,6-difluoro-4-sulfamoylphenyl)imidazo[1,2-a]pyridin-3-yl)methyl)morpholine-4-carboxylate]
crystalline form after being placed under ambient humidity ([1]; 35% RH, a few minutes): transforms into crystalline form I

COC(=O)N1CCO[C@@H](Cc2c(-c3c(F)cc(S(N)(=O)=O)cc3F)nc3cc(Cl)ccn23)C1 [Crystalline form VIII, methyl (S)-2-((7-chloro-2-(2,6-difluoro-4-sulfamoylphenyl)imidazo[1,2-a]pyridin-3-yl)methyl)morpholine-4-carboxylate]
crystalline form after desolvation by vacuum drying ([1]; vacuum drying at 40° C. for 3 hours): transformed into crystalline form I

COc1ccc2c(c1)[C@]13CCCC[C@@H]1[C@H](C2)N(C)CC3 [Dextromethorphan, dextromethorphan, reference compound]
Cough suppression rate vs Vehicle [2, 10]: 61.60% | Coughing times in 10 min [2, 10]: 8.00 | effect on number of coughs compared with the vehicle group, in words ([2]; guinea pig, in vivo): significantly reduce the number of coughs

COC(=O)N1CCO[C@@H](Cc2c(-c3c(F)cc(S(N)(=O)=O)cc3F)nc3cc(Cl)ccn23)C1 [Crystalline form V, methyl (S)-2-((7-chloro-2-(2,6-difluoro-4-sulfamoylphenyl)imidazo[1,2-a]pyridin-3-yl)methyl)morpholine-4-carboxylate]
XRPD before and after the DVS test [3]: no obvious change in the XRPD | hygroscopicity (DVS) ([3]; 80% RH, 25° C.): 0.7% | Initial purity (Peak area %) ([4]; 0 days): 99.29 peak area % | Purity -7 days (peak area %) ([4]; 40° C./75% RH (open)): 99.28 peak area % | XRPD ([4]; 40° C./75% RH (open)): Constant | stability conclusion in words ([4]; 40° C./75% RH and 60° C., seven days): good physical and chemical stability | Purity -7 days (peak area %) ([4]; 60° C. (covered)): 99.30 peak area % | XRPD ([4]; 60° C. (covered)): Constant | relative stability inferred from competitive slurrying and water activity tests [5]: stable at high temperature (60° C.) in water | The experimental results (crystalline form) ([6]; water content 10%, 60° C.): Crystalline form VI | The experimental results (crystalline form) ([6]; water content 10%, RT): Crystalline form I | The experimental results (crystalline form) ([6]; water content 50%, 60° C.): Crystalline form IV | The experimental results (crystalline form) ([6]; water content 50%, RT): Crystalline form IV | The experimental results (crystalline form) ([6]; water content 90%, 60° C.): Crystalline form IV | The experimental results (crystalline form) ([6]; water content 90%, RT): Crystalline form IV | solubility at 0.5 h ([7]; FaSSIF, 37 °C, fassif, thermodynamic from solid, FaSSIF, 0.5 h, read-out: Solubility): 30 µg/mL (≈ 59.9 µM) | solubility at 2 h ([7]; FaSSIF, 37 °C, fassif, thermodynamic from solid, FaSSIF, 2 h, read-out: Solubility): 34 µg/mL (≈ 67.9 µM) | solubility at 24 h ([7]; FaSSIF, 37 °C, thermodynamic from solid, 24 h): 45 µg/mL (≈ 89.8 µM) | XRPD of remaining solid ([7]; FaSSIF, 0.5 h): Unchanged | pH of filtrate ([7]; FaSSIF, 0.5 h): 6.4 | XRPD of remaining solid ([7]; FaSSIF, 2 h): Unchanged | pH of filtrate ([7]; FaSSIF, 2 h): 6.4 | XRPD of remaining solid ([7]; FaSSIF, 24 h): Unchanged | pH of filtrate ([7]; FaSSIF, 24 h): 6.4 | XRPD of remaining solid ([7]; FeSSIF, 0.5 h): Unchanged | pH of filtrate ([7]; FeSSIF, 0.5 h): 5.0 | Solubility ([7]; FeSSIF, 0.5 h): 91 µg/mL (≈ 182 µM) | XRPD of remaining solid ([7]; FeSSIF, 2 h): Unchanged | pH of filtrate ([7]; FeSSIF, 2 h): 5.0 | Solubility ([7]; FeSSIF, 2 h): 93 µg/mL (≈ 186 µM) | XRPD of remaining solid ([7]; FeSSIF, 24 h): Unchanged | pH of filtrate ([7]; FeSSIF, 24 h): 5.1 | Solubility ([7]; FeSSIF, 24 h): 121 µg/mL (≈ 242 µM) | solubility at 0.5 h ([7]; SGF, 37 °C, simulated gastric fluid, thermodynamic from solid, SGF, 0.5 h, read-out: Solubility): 4330 µg/mL (≈ 8650 µM) | solubility at 2 h ([7]; SGF, 37 °C, simulated gastric fluid, thermodynamic from solid, SGF, 2 h, read-out: Solubility (visual observation)): > 5000 µg/mL | pH of filtrate ([7]; SGF, 0.5 h): 1.2 | pH of filtrate ([7]; SGF, 2 h): 1.1 | pH of filtrate ([7]; SGF, 24 h): 1.2 | AUClast [8]: 2637.43 ng·h/mL | Cmax [8]: 170.43 ng/mL | F [8]: 11.7% | MRTlast [8]: 10.39 h | T1/2 [8]: 44.35 h | Tmax [8]: 4.67 h | mutual crystal transformation in solid state [9]: no mutual crystal transformation trend
